What all share (format): in vivo, mouse
For experiment [1], the system named is NOD/Lt mice. As to the kind of experiment: Submandibular gland lymphocytic infiltration in EGCG/water-fed NOD/Lt mice. Conditions: 0.2% EGCG in drinking water. The method, then:
Animals were fed either with EGCG/water or water only. At the age of 8 (n=36), 16 (n=36) and 22 weeks (n=27), submandibular glands were dissected, processed and stained by H&E. Three randomly selected areas of lymphocytic infiltrates were measured in each gland as relative density units generated by BIOQUANT NOVA PRIME 6.75 software, representing area sizes. Error bars are standard error of means (SEM). […] An animal study was conducted to examine whether EGCG fed prior to development of exocrinopathy is protective against salivary gland lymphocyte infiltration and gland abnormalities. Since EGCG is the most abundant green tea polyphenol, and widely used in scientific studies, this compound was selected for this feasibility study using 0.2% EGCG in drinking water (Gillespie K, et al. 2008).

Experiment [2] has as its system TUNEL-positive cells in submandibular gland. Put plainly: Apoptotic activity in salivary glands by TUNEL staining, NOD/Lt mice. Conditions: 0.2% EGCG in drinking water, 8, 16, 22 weeks. An excerpt:
Submandibular salivary gland samples from BALB/c (left), water-fed (middle), and EGCG-fed (right) NOD/Lt mice were stained with ApopTag Plus Peroxidase in situ apoptosis detection method according to the manufacturer's instructions. Arrows point to the nuclear staining of TUNEL-positive cells. […] Submandibular salivary gland samples from BALB/c (left), water-fed (middle), and EGCG-fed (right) NOD/Lt mice were immunostained with the anti-PCNA antibody. Arrows point to the nuclear staining of PCNA-positive cells. […] Submandibular salivary gland samples from BALB/c (left), water-fed (middle), and EGCG-fed (right) NOD/Lt mice were immunostained with the anti-Ki-67 antibody. Arrows point to the nuclear staining of Ki-67-positive cells. […] Solid bars represent the average percentage of TUNEL-positive cells in the submandibular gland of water-fed NOD/Lt mice. Open bars represent the average of TUNEL-positive cells in the submandibular gland of EGCG-fed NOD/Lt mice. […] Solid bars represent the average percentage of PCNA-positive cells in the submandibular gland of water-fed NOD/Lt mice. […] The apoptotic activity was determined by TUNEL staining of the salivary glands (FIG. 5A) and quantification (FIG. 6A). […] Although it was not determined which cells were undergoing apoptosis, there was no significant apoptotic activity in the majority of secretory cells (Gillespie K, et al. 2008).

Experiment [3] concerns PCNA. As to the kind of experiment: PCNA immunostaining of submandibular glands, NOD/Lt mice. Conditions: 0.2% EGCG in drinking water, between 16 and 22 weeks of age. The text has this:
(§1) Submandibular salivary gland samples from BALB/c (left), water-fed (middle), and EGCG-fed (right) NOD/Lt mice were stained with ApopTag Plus Peroxidase in situ apoptosis detection method according to the manufacturer's instructions. Arrows point to the nuclear staining of TUNEL-positive cells. […] Submandibular salivary gland samples from BALB/c (left), water-fed (middle), and EGCG-fed (right) NOD/Lt mice were immunostained with the anti-PCNA antibody. Arrows point to the nuclear staining of PCNA-positive cells. […] Submandibular salivary gland samples from BALB/c (left), water-fed (middle), and EGCG-fed (right) NOD/Lt mice were immunostained with the anti-Ki-67 antibody. Arrows point to the nuclear staining of Ki-67-positive cells. […] Solid bars represent the average percentage of TUNEL-positive cells in the submandibular gland of water-fed NOD/Lt mice. Open bars represent the average of TUNEL-positive cells in the submandibular gland of EGCG-fed NOD/Lt mice. […] Solid bars represent the average percentage of PCNA-positive cells in the submandibular gland of water-fed NOD/Lt mice. Open bars represent the average of PCNA-positive cells in the submandibular gland of EGCG-fed NOD/Lt mice. […] Solid bars represent the average of Ki-67-positive cells in the submandibular gland of water-fed NOD/Lt mice. Open bars represent the average of Ki-67-positive cells in the submandibular gland of […] […]

Experiment [4] relates to Ki-67. As to the kind of experiment: Ki-67 immunostaining of submandibular glands, NOD/Lt mice. The conditions noted are these: 0.2% EGCG in drinking water, 8, 16, 22 weeks.
Excerpt: as §1

Experiment [5] has as its system peroxiredoxin 6. Put plainly: Antioxidant capacity by immunohistochemistry in NOD mice: peroxiredoxin 6. The conditions noted are these: 22 weeks. An excerpt: (§2) FIGS. 8A-8C, 8D-8F show representative immunostaining of peroxiredoxin 6 (FIGS. 8A-C) and catalase (FIGS. 8D-F) expression in glandular epithelium of 22 week old water-fed (FIGS. 8A, 8D) and EGCG-treated NOD mice (FIGS. 8B, 8E) (magnification 200×). FIGS. 8C and 8F show statistical analysis of peroxiredoxin 6 and Catalase-positive cells. Black arrows point to ductal cells; open arrow to acinar cells (FIG. 8B). Salivary gland and pancreas samples were obtained at 22 weeks of age from NOD mice fed water or EGCG-water (12 animals per group), and from control BALB/c mice. The antioxidant capacity represented by protein levels of peroxiredoxin 6, superoxide dismutase 1 (SOD1), catalase, and glutathione peroxidase was measured by immunohistochemstry.

The test system of experiment [6] is catalase. As to the kind of experiment: Antioxidant capacity by immunohistochemistry in NOD mice: catalase. The conditions noted are these: submandibular salivary glands, EGCG-fed NOD/Lt mice, 22 weeks; n=12, p<0.04.
Excerpt: as §2

Experiment [7] concerns superoxide dismutase 1 (SOD1). Put plainly: Antioxidant capacity by immunohistochemistry in NOD mice: SOD1. Conditions: EGCG-fed NOD mice, 22 weeks, n=12, P<0.0001. Here is the method:
Salivary gland and pancreas samples were obtained at 22 weeks of age from NOD mice fed water or EGCG-water (12 animals per group), and from control BALB/c mice. The antioxidant capacity represented by protein levels of peroxiredoxin 6, superoxide dismutase 1 (SOD1), catalase, and glutathione peroxidase was measured by immunohistochemstry.

Consider `O=C(O[C@@H]1Cc2c(O)cc(O)cc2O[C@@H]1c1cc(O)c(O)c(O)c1)c1cc(O)c(O)c(O)c1` [EGCG, epigallocatechin-3-gallate], for which the “average area of lymphocytic infiltration vs water-fed group” value in experiment [1] (16 weeks of age, p=0.026) is on record as “significantly lower”. The “average area of lymphocytic infiltration vs water-fed group” value in experiment [1] (22 weeks of age) is “no significant difference”. In experiment [2], the “apoptosis in the glandular epithelium (TUNEL)” value is on record as “did not affect” and the “apoptosis in the infiltrates (TUNEL)” value is “initially raising levels, but blocking the considerable increase seen at 22 weeks in water-fed mice”. The “PCNA-positive cells in submandibular glands” value in experiment [3] is reported as “considerably reduces the rise of PCNA”. Besides, in experiment [4], the “Ki-67 levels in submandibular glands” value is “affected by EGCG in the same pattern”. Also, in experiment [5] (pancreas, EGCG-fed NOD mice, n=12, P<0.0001), the “peroxiredoxin 6 level in the pancreas” value is given as “normalized to BALB/c levels”. The “expression of peroxiredoxin 6 vs water only fed mice” value in experiment [5] (submandibular salivary glands, EGCG-fed NOD/Lt mice, n=12, p<0.04) was “significantly higher”. Besides, the “expression of catalase vs water only fed mice” value in experiment [6] is recorded as “significantly higher”. For the same molecule, the “SOD1 level in the pancreas” value in experiment [7] is “normalized to BALB/c levels”.

The values are drawn from patent US8920854B2, “Oral care compositions for treating xerostomia” (Georgia Regents Research Institute, priority 2009, dated 2014).
